Experiment [1] addresses T1, Human Aβ38, Aβ40 and Aβ42 (Homo sapiens, UniProt P05067).
T1 construct: from tissue; host or cells: CSF and left brain hemisphere (SDS fraction) of transgenic hAPPSL mice
The experiment in a line: Human Aβ38, Aβ40 and Aβ42 in SDS brain homogenate fraction of hAPPSL Tg mice after 90 days treatment. The experiment is classed as in vivo, mouse. As to conditions: twice daily i.p., p-FTAA 1 or 10 mg/kg/day, P9707_003 10 mg/kg/day. The protocol:
(§1) Vehicle: Phosphate Buffered Saline (PBS; 6.7 mM PO4, 155 mM NaCl, pH=7.3-7.5) (BioWhittaker PBS from Lonza).
(§2) Test item (T.I.): p-FTAA and P9707_003 diluted in vehicle from stock solution in deionized water (10 mg/ml).
(§3) Tg hAPPSL: Transgenic hAPPSL mice over-expressing hAPP(751) under the control of the murine Thy-1 promoter with a C57BL/6xDBA background.
(§4) Human Aβ38, Aβ40 and Aβ42 were determined in homogenates of the left brain hemispheres and in CSF samples of all Tg animals by an immunosorbent assay from Mesoscale Discovery
48 hAPP Tg mice plus 4 reserves allocated to 4 different treatment groups were treated with either vehicle only (control), p-FTAA or P9707_003. As an additional control, 12 nTg littermates of the hAPPSL mice (plus 1 reserve) were treated with vehicle only. Starting at 6.5 months of age, female hAPPSL mice were treated with vehicle only, p-FTAA (dosage: 1 or 10 mg/kg/day) or P9707_003 (dosage: 10 mg/kg/day) for 90 days. […]
(§5) In the brain homogenate SDS fraction and in CSF of each Tg mouse, human Aβ38, Aβ40 and Aβ42 levels were measured with a Aβ-kit from Mesoscale Discovery. Aβ levels were evaluated in comparison to a peptide standard as pg/mg brain (wet weight) or pg/ml CSF.
Descriptive statistical analysis was performed on all evaluated parameters. […] Group differences between all Tg groups were calculated by a parametric ANOVA followed by a Bonferroni post test.

Experiment [2] deals with PHF-tau doubly-phosphorylated at Thr231 and Ser235. The experiment in a line: Phosphorylation of Tau in neurites crossing amyloid plaques, AT180 IHC, hAPPSL Tg mice. The experiment is classed as in vivo, mouse. The protocol: as §1
Test Item (T.I.): p-FTAA and P9707_003, diluted in vehicle from stock solution in deionized water (10 mg/ml).
as §3
(§6) 48 hAPP Tg mice plus 4 reserves allocated to 4 different treatment groups were treated with either vehicle only (control), p-FTAA or P9707_003. As an additional control, 12 nTg littermates of the hAPPSL mice (plus 1 reserve) were treated with vehicle only. Starting at 6.5 months of age, female hAPPSL mice were treated with vehicle only, p-FTAA (dosage: 1 or 10 mg/kg/day) or P9707_003 (dosage: 10 mg/kg/day) for 90 days. The Test Items (T.I.s) were administered in Vehicle. Compound and vehicle were administered twice daily i.p. for 90 days. Tg hAPPSL mice with a C57BL/6xDBA background and corresponding nTg littermates at an age of 6.5 months (+2 weeks) were randomly assigned to the treatment groups.
Histological evaluations were performed with six randomly chosen cryo-frozen brain hemispheres of treatment groups PBS Control, p-FTAA 1 mg/kg/day, p-FTAA 10 mg/kg/day, and P9707_003 10 mg/kg/day.
15 cryo-sections per level (altogether 5 levels), each 10 μm thick (Leica CM 3050S) were sagittally cut. Brain levels were chosen according to the morphology atlas “The Mouse Brain” from Paxinos and Franklin (2nd edition). The cutting of the five levels started with a random slice, then sampling was continued uniformly and systematically, always retaining 15 slices per level in series and discarding 100 μm in between the levels.
TAU phosphorylation was visualized immunohistochemically using the AT180 antibody. Clone AT180 recognizes PHF-tau doubly-phosphorylated at Thr231 and Ser235.
For determination of amyloid depositions 5 slices (1 from each level) per brain were stained and screened. From each slice five images were captured from 5 defined areas in the brain. The order of these positions reflect the time course of plaque deposition in the APPsl model, which starts in the frontal cortex (P11) at the age of 3 months and then spreads to the medial (P12) and dorsal cortex over age. At six months of age, plaques can be found in the medial cortex (P13), from then plaque load spreads into the hippocampal formation with hot spots in the subiculum (P14) and the dentate gyrus (P15) at the age of nine months.
Mosaic images for plaque load quantification including the whole cortex and hippocampus were recorded on a Zeiss AxioImager.Z1 microscope using high aperture lenses and an AxioVision 4.8 software driven AxioCam MRm (10× lens, 1× optocoupler). Plaques for AT180 quantifcation were imaged with a 20× lens. Detail images for qualitative figures are 40× image stacks collapsed to 2D by the extended depth of field function of AxioVision software.
Descriptive statistical analysis was performed on all evaluated parameters, Kolmogorov Smirnov test were performed to test normal distribution of data. Data in graphs are represented as mean±SEM.

The test system of a further experiment is prion. The conditions noted are these: Ref: JBC doi: 10.1074/jbc.M112.355958; cited from earlier work.
Experiment [3] addresses T1, Human Aβ38, Aβ40 and Aβ42. The experiment in a line: Human Aβ38, Aβ40 and Aβ42 in CSF of hAPPSL Tg mice after 90 days treatment (immunosorbent assay). The experiment is classed as in vivo, mouse. The conditions noted are these: twice daily i.p., hAPPSL Tg mice, p-FTAA 1 or 10 mg/kg/day, P9707_003 10 mg/kg/day. The procedure: as §1, §2, §3, §4
as §6, with “(±2” for “(+2”
as §5
Descriptive statistical analysis was performed on all evaluated parameters. All data were represented as mean±standard error of mean (SEM). Grubb's test was used to detect outliers. Normality distribution of the values was tested with Kolmogorov Smirnov normality distribution test. Group differences between all Tg groups were calculated by a parametric ANOVA followed by a Bonferroni post test.

The next experiment deals with T2, biotinylated Aβ1-42 (Homo sapiens, UniProt P05067).
T2 construct: To assure monomerisation of biotinylated Aβ1-42 (Anaspec #23523-0.5) the peptide was thoroughly monomerised; purchased Anaspec 23523-0.5
Nature of the experiment: Inhibition of Abeta oligomerisation (biotinylated Aβ1-42, neutravidin plate, streptavidin-HRP). The experiment is classed as biochemical. The conditions noted are these: inhibition of Aβ1-42 aggregation, approximately 12 nM Aβ1-42, PBS pH 7.4, 2% DMSO, 30 min RT.

Structures are written as SMILES. Entries after “also recorded” stand apart in the source; their conditions may differ.

The text below walks through data of patent US9359311B2, “Substituted aromatic oligomers” (NEUROSCIOS GMBH, priority 2011, dated 2016).

T1 sequence (P05067 672-713 limits assumed): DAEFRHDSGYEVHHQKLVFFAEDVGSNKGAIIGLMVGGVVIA
T2 sequence (P05067 672-713 limits assumed): as above

As for `O=C(O)Cc1cc(-c2ccc(C(=O)O)s2)sc1-c1ccc(-c2sc(-c3ccc(C(=O)O)s3)cc2CC(=O)O)s1` [p-FTAA, reference compound], in experiment [1], the “aggregated Aβ38, Aβ40 and Aβ42 in SDS fraction of brain homogenate” value is recorded as “significant SDS soluble Aβ lowering effect; also recorded: reduced”. Moreover, the AT180 load entry in experiment [2] (1 mg p-FTAA treatment, position 4) is on record as “significantly reduced”; in experiment [2] (10 mg p-FTAA treatment, positions 4 and 5), “highly significant reduction”. Besides, the “AT180 IR in plaques of younger history of origin (hippocampal formation, subiculum, dentate gyrus)” value in experiment [2] (90 days i.p., hAPPSL Tg mice) is “drastically reduced”. For the same molecule, the anti-prion potential result with prion is listed as “pronounced anti-prion potential”. In experiment [3], the “CSF Aβ levels” value is reported as “reduced”. The IC50 (usually the concentration at which inhibition is half-maximal) against biotinylated Aβ1-42 is 5.01 µM.
